# Assays:
# [1] = API solubility study in solubilizers/solvents/co-solvents (formulation trials); assay type: physicochemical; conditions: ethanol added after addition of API
# Source text: During the selection of excipients for formulation of Enzalutamide oral solution, first it is required to select the excipients which are not covered by patent of Enzalutamide capsules and also excipients need to meet IIG limits and useful for product development.
# In the present invention selection of Solubilizers based on different trials which are like Labrafac Lipophile WL-1349, Labrafil M1944 Cs, Maisine CC, Kolliphor RH 40, Tween 80, Castor Oil, Migloyl 812 etc.
# Further, here in the present invention selection of Co-solvents also based on trials and experiments which are Propylene glycol, Polyethylene glycol 400, Poly ethylene glycol 200, Ethanol, Glycerine, Maisine CC etc.
# Based on the API solubility study combination of Kolliphor RH 40 with Ethanol and Polyethylene 400 was taken for further study. […]
# Process for the Preparation: • 1. Dispensed quantity of Polyoxyl 40 hydrogenated castor oil was taken and started heating with maintained temperature of 45° C. of product. Further, Dispensed quantity of glyceryl monolinoleate was added to material of above step under stirring mixing/homogenization process. • 2. […] Further, then dispensed quantity of Ethanol was added to above step of material and continued process of stirring/homogenization then added dispensed quantity of propylene glycol and continued the process till Enzalutamide was dissolved. […]
# [2] = cited from earlier work
# CACO2 monolayers = conditions: across CACO2 monolayers; cited from earlier work
# [3] = Stability of enzalutamide standard solution; assay type: physicochemical; conditions: 25° C., in ACN diluted with dissolution medium
# Procedure: In that, 25 ml of ACN was dissolved and diluted with ACN to volume. From this solution, 2 ml of solution was transferred to a 100 ml volumetric flask and diluted with dissolution medium to volume. The standard solution was found stable at 25° C. for 27 h. Sample solution was prepared by adding a 5 ml sample of the present invention in 900 ml of dissolution medium. Further, 2.0 ml of this solution was diluted with 100 ml of dissolution medium.
compound,measurement,setting,value
CNC(=O)c1ccc(N2C(=S)N(c3ccc(C#N)c(C(F)(F)F)c3)C(=O)C2(C)C)cc1F [Enzalutamide],API solubilized during procedure,[1],approx. 80%
same,Biopharmaceutics Classification System (BCS) class,[2]; low solubility and high permeability,Class 2
same,effect of pH on enzalutamide solubility,[2]; physiological pH range,not affected by pH
same,mean apparent permeability coefficient,CACO2 monolayers,310 nm/s
same,time for which the standard solution was found stable,[3],27 h

# Reference: patent US12150930B2 (BDR Pharmaceuticals Int'l Pvt. Ltd., priority 2022, dated 2024)
